Measurements as given in ChEMBL document CHEMBL5715260, “Selectivity Literature for EUbOPEN Chemogenomic Library” (2024).

Columns and labels:
[1] = target: 5-hydroxytryptamine receptor 2B (Homo sapiens) (UniProt P41595); experiment: Selectivity interaction (CEREP panel) EUB0000089c HTR2B; set-up: recommended concentration 1 uM; conditions: at 10 µM
[2] = target: Adenosine receptor A2a (Homo sapiens) (UniProt P29274); experiment: Selectivity interaction (CEREP panel) EUB0000089c ADORA2A; set-up: recommended concentration 1 uM; conditions: at 10 µM
Adenosine receptor A2a (Homo sapiens), sequence (P29274 whole entry): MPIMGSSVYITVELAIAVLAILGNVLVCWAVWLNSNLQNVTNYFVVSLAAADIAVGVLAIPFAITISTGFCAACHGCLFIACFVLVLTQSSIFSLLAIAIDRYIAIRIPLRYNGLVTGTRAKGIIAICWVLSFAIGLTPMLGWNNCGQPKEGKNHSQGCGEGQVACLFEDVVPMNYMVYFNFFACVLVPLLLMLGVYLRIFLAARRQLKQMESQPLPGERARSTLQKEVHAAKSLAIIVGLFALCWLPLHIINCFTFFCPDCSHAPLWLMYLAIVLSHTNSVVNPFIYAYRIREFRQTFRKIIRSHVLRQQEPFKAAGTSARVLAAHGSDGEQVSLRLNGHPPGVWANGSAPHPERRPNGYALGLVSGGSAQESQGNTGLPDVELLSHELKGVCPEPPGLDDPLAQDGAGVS

[3] = target: Sodium-dependent noradrenaline transporter (Homo sapiens) (UniProt P23975); experiment: Selectivity interaction (CEREP panel) EUB0000089c SLC6A2; set-up: recommended concentration 1 uM; conditions: at 10 µM
[4] = target: Adenosine receptor A1 (Homo sapiens) (UniProt P30542); experiment: Selectivity interaction (CEREP panel) EUB0000089c ADORA1; set-up: recommended concentration 1 uM; conditions: at 10 µM
Adenosine receptor A1 (Homo sapiens), sequence (P30542 whole entry): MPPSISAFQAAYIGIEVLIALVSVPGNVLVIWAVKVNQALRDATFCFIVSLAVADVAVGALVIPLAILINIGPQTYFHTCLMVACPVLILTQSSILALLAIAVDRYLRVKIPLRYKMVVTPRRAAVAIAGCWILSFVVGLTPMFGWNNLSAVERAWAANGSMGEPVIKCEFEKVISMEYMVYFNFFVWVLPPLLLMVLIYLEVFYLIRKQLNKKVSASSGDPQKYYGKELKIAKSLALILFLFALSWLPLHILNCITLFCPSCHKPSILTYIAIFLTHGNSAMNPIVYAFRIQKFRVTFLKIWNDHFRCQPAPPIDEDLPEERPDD

[5] = target: T1, Alpha trans-inducing protein (Human alphaherpesvirus 1) (UniProt A0A5J6DW59); experiment: Selectivity interaction (Reporter gene assay) EUB0000184b UL48; set-up: recommended concentration 1 uM
T1 sequence (A0A5J6DW59 as listed by the source): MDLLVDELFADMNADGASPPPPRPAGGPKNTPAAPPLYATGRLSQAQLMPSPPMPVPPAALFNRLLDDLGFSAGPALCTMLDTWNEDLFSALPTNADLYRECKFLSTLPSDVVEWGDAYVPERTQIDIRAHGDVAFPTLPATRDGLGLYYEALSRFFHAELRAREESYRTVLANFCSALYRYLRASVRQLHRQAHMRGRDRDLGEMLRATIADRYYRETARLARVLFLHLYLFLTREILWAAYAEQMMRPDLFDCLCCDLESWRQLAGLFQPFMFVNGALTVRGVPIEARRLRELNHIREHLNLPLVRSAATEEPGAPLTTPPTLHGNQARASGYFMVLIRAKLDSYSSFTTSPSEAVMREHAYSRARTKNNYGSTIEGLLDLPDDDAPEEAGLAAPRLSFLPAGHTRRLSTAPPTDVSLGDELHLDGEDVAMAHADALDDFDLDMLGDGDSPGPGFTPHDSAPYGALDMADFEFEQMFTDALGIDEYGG

[6] = target: Nuclear receptor subfamily 2 group E member 1 (Homo sapiens) (UniProt Q9Y466); experiment: Selectivity interaction (Reporter gene assay) EUB0000184b NR2E1; set-up: recommended concentration 1 uM
Nuclear receptor subfamily 2 group E member 1 (Homo sapiens), sequence (Q9Y466 whole entry): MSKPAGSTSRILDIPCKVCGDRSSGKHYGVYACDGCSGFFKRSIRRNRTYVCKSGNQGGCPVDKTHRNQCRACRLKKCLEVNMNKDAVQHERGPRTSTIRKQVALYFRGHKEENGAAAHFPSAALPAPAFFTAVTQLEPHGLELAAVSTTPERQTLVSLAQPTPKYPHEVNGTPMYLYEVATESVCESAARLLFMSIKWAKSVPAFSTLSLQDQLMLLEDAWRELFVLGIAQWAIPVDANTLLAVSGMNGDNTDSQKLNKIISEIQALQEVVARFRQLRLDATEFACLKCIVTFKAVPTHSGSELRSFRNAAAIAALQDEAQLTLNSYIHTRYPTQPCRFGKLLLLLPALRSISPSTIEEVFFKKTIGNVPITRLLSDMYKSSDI

[7] = target: Nuclear receptor subfamily 4immunitygroup A member 1 (Homo sapiens) (UniProt P22736); experiment: Selectivity interaction (Reporter gene assay) EUB0000184b NR4A1; set-up: recommended concentration 1 uM
Nuclear receptor subfamily 4immunitygroup A member 1 (Homo sapiens), sequence (P22736 whole entry): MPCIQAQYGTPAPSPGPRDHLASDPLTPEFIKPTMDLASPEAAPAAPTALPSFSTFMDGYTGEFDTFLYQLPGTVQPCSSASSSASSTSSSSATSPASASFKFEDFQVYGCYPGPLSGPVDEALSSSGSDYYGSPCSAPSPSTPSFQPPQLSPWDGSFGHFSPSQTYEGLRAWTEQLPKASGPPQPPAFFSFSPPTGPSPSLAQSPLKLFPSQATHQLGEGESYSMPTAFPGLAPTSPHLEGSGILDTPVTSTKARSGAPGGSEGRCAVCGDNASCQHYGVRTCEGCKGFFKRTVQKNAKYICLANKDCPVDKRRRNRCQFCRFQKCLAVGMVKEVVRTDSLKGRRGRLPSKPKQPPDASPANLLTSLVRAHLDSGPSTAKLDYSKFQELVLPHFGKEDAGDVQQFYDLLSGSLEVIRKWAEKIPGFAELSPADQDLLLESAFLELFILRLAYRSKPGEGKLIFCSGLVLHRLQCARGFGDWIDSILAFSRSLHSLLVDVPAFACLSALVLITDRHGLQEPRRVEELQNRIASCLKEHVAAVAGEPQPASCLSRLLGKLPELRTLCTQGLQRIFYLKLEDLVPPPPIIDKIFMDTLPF

[8] = target: T2, Retinoic acid receptor RXR-alpha (Homo sapiens) (UniProt P19793); experiment: Selectivity interaction (Reporter gene assay) EUB0000184b RXRA; set-up: recommended concentration 1 uM
T2 sequence (whole entry): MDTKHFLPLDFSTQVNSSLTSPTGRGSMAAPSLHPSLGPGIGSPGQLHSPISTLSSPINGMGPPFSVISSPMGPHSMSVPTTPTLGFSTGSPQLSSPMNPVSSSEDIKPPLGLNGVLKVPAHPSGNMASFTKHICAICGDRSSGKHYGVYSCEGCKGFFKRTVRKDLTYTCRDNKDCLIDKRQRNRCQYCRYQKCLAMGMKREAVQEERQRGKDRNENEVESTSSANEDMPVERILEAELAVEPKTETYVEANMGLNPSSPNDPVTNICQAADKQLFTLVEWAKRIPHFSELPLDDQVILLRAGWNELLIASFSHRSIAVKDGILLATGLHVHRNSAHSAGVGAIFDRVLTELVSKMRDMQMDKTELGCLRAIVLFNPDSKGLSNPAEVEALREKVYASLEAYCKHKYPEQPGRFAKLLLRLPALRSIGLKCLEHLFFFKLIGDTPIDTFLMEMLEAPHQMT

[9] = target: T3, Nuclear receptor subfamily 2 group C member 1 (Homo sapiens) (UniProt P13056); experiment: Selectivity interaction (Reporter gene assay) EUB0000184b NR2C1; set-up: recommended concentration 1 uM
T3 sequence (whole entry): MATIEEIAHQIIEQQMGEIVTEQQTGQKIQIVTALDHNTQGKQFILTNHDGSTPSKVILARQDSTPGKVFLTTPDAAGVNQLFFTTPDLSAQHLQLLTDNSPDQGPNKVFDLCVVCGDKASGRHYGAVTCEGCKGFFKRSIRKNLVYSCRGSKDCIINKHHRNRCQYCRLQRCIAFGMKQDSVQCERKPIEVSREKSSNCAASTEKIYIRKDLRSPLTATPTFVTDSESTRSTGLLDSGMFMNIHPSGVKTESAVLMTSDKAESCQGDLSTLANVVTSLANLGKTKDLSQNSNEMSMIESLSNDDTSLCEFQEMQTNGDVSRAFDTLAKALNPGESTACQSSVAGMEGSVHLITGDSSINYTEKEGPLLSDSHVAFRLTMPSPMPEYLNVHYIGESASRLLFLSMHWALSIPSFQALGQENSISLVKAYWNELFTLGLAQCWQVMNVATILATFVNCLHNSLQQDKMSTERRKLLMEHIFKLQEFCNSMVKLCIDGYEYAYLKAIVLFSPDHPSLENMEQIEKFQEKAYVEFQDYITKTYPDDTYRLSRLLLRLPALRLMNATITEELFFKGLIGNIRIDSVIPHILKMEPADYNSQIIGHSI

[10] = target: T4, Hepatocyte nuclear factor 4-alpha (Homo sapiens) (UniProt P41235); experiment: Selectivity interaction (Reporter gene assay) EUB0000184b HNF4A; set-up: recommended concentration 1 uM
T4 sequence (whole entry): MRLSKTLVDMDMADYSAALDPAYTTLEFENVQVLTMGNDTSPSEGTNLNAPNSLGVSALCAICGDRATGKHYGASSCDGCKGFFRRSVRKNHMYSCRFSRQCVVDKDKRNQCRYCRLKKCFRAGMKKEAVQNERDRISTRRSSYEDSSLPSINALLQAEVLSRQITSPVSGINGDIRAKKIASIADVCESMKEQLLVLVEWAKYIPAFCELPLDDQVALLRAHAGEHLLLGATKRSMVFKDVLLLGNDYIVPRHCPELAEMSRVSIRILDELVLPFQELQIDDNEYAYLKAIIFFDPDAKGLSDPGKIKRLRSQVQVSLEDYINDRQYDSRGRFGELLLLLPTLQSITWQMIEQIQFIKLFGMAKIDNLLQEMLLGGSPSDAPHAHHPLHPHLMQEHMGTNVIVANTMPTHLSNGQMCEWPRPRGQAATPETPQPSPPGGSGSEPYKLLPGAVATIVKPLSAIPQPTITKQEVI

[11] = target: Steroidogenic factor 1 (Homo sapiens) (UniProt Q13285); experiment: Selectivity interaction (Reporter gene assay) EUB0000184b NR5A1; set-up: recommended concentration 1 uM
Steroidogenic factor 1 (Homo sapiens), sequence (Q13285 whole entry): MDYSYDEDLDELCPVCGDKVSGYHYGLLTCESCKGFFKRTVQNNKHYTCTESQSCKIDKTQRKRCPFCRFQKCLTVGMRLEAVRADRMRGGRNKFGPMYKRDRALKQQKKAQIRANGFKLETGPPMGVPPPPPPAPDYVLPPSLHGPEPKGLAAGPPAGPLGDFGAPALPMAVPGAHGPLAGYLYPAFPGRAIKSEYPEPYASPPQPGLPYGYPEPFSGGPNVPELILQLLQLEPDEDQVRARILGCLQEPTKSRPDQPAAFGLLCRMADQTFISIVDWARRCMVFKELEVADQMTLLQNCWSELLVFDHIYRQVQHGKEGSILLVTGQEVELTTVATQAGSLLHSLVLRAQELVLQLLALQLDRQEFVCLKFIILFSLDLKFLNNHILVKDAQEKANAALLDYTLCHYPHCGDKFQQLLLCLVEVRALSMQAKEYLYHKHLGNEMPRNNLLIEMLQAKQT

[12] = target: Adenosine receptor A1 (Homo sapiens) (UniProt P30542); experiment: Selectivity interaction (CEREP panel) EUB0000323b ADORA1; set-up: recommended concentration 1 uM; conditions: at 10 µM
[13] = target: Bromodomain-containing protein 3 (Homo sapiens) (UniProt Q15059); experiment: (§1) Selectivity interaction (Bromodomain panel) EUB0000323b BRD3; set-up: recommended concentration 1 uM
Bromodomain-containing protein 3 (Homo sapiens), sequence (Q15059 2-726 limits assumed): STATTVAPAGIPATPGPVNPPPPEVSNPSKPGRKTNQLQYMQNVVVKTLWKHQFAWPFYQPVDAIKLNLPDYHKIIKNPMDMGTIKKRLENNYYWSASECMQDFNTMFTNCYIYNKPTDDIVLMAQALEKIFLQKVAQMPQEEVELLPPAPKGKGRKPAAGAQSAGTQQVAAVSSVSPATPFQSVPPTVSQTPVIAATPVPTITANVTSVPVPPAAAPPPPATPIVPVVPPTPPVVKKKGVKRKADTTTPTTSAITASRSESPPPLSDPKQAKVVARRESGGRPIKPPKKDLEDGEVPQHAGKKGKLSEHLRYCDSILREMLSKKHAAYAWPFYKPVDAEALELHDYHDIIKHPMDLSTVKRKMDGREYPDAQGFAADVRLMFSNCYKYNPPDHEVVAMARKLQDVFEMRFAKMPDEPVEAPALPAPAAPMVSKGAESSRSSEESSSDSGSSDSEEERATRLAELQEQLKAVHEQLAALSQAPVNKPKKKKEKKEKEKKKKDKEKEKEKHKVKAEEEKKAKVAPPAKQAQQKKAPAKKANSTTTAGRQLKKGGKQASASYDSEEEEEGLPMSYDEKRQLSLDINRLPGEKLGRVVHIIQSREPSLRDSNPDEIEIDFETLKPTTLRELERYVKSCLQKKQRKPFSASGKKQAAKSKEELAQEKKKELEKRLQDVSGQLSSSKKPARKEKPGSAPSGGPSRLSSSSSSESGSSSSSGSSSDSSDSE

[14] = target: Transcription intermediary factor 1-alpha (Homo sapiens) (UniProt O15164); experiment: (§2) Selectivity interaction (Bromodomain panel) EUB0000323b TRIM24; set-up: recommended concentration 1 uM
Transcription intermediary factor 1-alpha (Homo sapiens), sequence (O15164 whole entry): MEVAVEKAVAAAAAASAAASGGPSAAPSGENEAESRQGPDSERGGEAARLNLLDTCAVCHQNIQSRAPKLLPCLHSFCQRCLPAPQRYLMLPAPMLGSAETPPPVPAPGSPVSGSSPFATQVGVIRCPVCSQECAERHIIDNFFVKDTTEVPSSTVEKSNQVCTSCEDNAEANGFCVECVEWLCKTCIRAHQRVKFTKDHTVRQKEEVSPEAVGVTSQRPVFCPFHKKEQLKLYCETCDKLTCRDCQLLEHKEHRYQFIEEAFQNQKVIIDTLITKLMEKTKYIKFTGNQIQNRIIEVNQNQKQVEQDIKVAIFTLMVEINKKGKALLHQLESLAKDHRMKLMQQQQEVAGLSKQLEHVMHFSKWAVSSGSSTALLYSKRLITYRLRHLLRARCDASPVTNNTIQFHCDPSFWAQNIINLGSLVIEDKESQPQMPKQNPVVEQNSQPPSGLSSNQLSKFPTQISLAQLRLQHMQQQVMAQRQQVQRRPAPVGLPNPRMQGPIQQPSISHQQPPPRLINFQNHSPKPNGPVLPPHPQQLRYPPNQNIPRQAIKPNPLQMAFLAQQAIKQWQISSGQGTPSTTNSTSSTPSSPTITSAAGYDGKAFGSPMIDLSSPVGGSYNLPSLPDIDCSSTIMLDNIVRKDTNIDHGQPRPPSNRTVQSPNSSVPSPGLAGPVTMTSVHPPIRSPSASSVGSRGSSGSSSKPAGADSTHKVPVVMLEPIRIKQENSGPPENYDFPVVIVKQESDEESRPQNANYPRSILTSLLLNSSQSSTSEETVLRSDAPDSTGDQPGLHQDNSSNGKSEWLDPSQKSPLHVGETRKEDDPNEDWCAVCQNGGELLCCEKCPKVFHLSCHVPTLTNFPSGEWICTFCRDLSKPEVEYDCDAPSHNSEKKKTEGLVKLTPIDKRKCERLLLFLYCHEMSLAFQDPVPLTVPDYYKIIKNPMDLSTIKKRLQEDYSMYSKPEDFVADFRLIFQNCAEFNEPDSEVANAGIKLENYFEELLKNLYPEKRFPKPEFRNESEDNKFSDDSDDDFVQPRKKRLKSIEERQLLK

[15] = target: Bromodomain-containing protein 4 (Homo sapiens, UniProt O60885); experiment: Selectivity interaction (Bromodomain panel) EUB0000323b BRD4; set-up: recommended concentration 1 uM
[16] = target: Bromodomain-containing protein 3 (Homo sapiens) (UniProt Q15059); experiment: as §1; set-up: recommended concentration 1 uM; remark: listed apart in the source
[17] = target: Transcription intermediary factor 1-alpha (Homo sapiens) (UniProt O15164); experiment: as §2; set-up: recommended concentration 1 uM; remark: listed apart in the source
[18] = target: Bromodomain-containing protein 7 (Homo sapiens) (UniProt Q9NPI1); experiment: Selectivity interaction (Bromodomain panel) EUB0000323b BRD7; set-up: recommended concentration 1 uM
[19] = target: Transcription initiation factor TFIID subunit 1-like (Homo sapiens) (UniProt Q8IZX4); experiment: Selectivity interaction (Bromodomain panel) EUB0000323b TAF1L; set-up: recommended concentration 1 uM
[20] = target: Peroxisome proliferator-activated receptor delta (Homo sapiens) (UniProt Q03181); experiment: Selectivity interaction (Reporter gene assay) EUB0000185b PPARD; set-up: recommended concentration 1 uM; conditions: screened at recom. conc., Selectivity number of off-targets 1.0, Selectivity number of targets 19.0, Source Knowledge inhouse
Peroxisome proliferator-activated receptor delta (Homo sapiens), sequence (Q03181 whole entry): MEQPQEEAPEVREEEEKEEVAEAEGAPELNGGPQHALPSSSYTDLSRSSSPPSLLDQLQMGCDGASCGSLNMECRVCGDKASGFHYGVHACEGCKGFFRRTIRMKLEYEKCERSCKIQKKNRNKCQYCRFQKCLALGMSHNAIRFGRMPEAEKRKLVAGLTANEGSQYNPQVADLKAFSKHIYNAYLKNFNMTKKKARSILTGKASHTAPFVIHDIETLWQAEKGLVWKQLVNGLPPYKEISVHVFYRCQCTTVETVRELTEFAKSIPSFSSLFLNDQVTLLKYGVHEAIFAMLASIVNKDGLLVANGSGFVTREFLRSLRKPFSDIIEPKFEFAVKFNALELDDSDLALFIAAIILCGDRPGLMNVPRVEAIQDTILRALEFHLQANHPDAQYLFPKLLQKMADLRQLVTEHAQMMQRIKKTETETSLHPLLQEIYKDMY

[21] = target: T3, Nuclear receptor subfamily 2 group C member 1 (Homo sapiens); experiment: Selectivity interaction (Reporter gene assay) EUB0000185b NR2C1; set-up: recommended concentration 1 uM
[22] = target: T2, Retinoic acid receptor RXR-alpha (Homo sapiens); experiment: Selectivity interaction (Reporter gene assay) EUB0000185b RXRA; set-up: recommended concentration 1 uM; conditions: reference bexarotene 1 uM, Selectivity number of off-targets 0.0, Selectivity number of targets 1.0, Source Knowledge inhouse
[23] = target: T4, Hepatocyte nuclear factor 4-alpha (Homo sapiens); experiment: Selectivity interaction (Reporter gene assay) EUB0000185b HNF4A; set-up: recommended concentration 1 uM
[24] = target: Nuclear receptor subfamily 4immunitygroup A member 1 (Homo sapiens) (UniProt P22736); experiment: Selectivity interaction (Reporter gene assay) EUB0000185b NR4A1; set-up: recommended concentration 1 uM
[25] = target: Steroidogenic factor 1 (Homo sapiens) (UniProt Q13285); experiment: Selectivity interaction (Reporter gene assay) EUB0000185b NR5A1; set-up: recommended concentration 1 uM
[26] = target: Nuclear receptor subfamily 2 group E member 1 (Homo sapiens) (UniProt Q9Y466); experiment: Selectivity interaction (Reporter gene assay) EUB0000185b NR2E1; set-up: recommended concentration 1 uM
[27] = target: T1, Alpha trans-inducing protein (Human alphaherpesvirus 1); experiment: Selectivity interaction (Reporter gene assay) EUB0000185b UL48; set-up: recommended concentration 1 uM
[28] = target: T1, Alpha trans-inducing protein (Human alphaherpesvirus 1); experiment: Selectivity interaction (Reporter gene assay) EUB0000183b UL48; set-up: recommended concentration 3 uM
[29] = target: Nuclear receptor subfamily 2 group E member 1 (Homo sapiens) (UniProt Q9Y466); experiment: Selectivity interaction (Reporter gene assay) EUB0000183b NR2E1; set-up: recommended concentration 3 uM
[30] = target: Nuclear receptor subfamily 4immunitygroup A member 1 (Homo sapiens) (UniProt P22736); experiment: Selectivity interaction (Reporter gene assay) EUB0000183b NR4A1; set-up: recommended concentration 3 uM
[31] = target: T4, Hepatocyte nuclear factor 4-alpha (Homo sapiens); experiment: Selectivity interaction (Reporter gene assay) EUB0000183b HNF4A; set-up: recommended concentration 3 uM
[32] = target: T3, Nuclear receptor subfamily 2 group C member 1 (Homo sapiens); experiment: Selectivity interaction (Reporter gene assay) EUB0000183b NR2C1; set-up: recommended concentration 3 uM
[33] = target: T2, Retinoic acid receptor RXR-alpha (Homo sapiens); experiment: Selectivity interaction (Reporter gene assay) EUB0000183b RXRA; set-up: recommended concentration 3 uM
[34] = target: Steroidogenic factor 1 (Homo sapiens) (UniProt Q13285); experiment: Selectivity interaction (Reporter gene assay) EUB0000183b NR5A1; set-up: recommended concentration 3 uM
[35] = target: T2, Retinoic acid receptor RXR-alpha (Homo sapiens); experiment: Selectivity interaction (Reporter gene assay) EUB0000081c RXRA; set-up: recommended concentration 1 uM
[36] = target: Nuclear receptor subfamily 2 group E member 1 (Homo sapiens) (UniProt Q9Y466); experiment: Selectivity interaction (Reporter gene assay) EUB0000081c NR2E1; set-up: recommended concentration 1 uM
[37] = target: Nuclear receptor subfamily 4immunitygroup A member 1 (Homo sapiens) (UniProt P22736); experiment: Selectivity interaction (Reporter gene assay) EUB0000081c NR4A1; set-up: recommended concentration 1 uM
[38] = target: T1, Alpha trans-inducing protein (Human alphaherpesvirus 1); experiment: Selectivity interaction (Reporter gene assay) EUB0000081c UL48; set-up: recommended concentration 1 uM
[39] = target: T4, Hepatocyte nuclear factor 4-alpha (Homo sapiens); experiment: Selectivity interaction (Reporter gene assay) EUB0000081c HNF4A; set-up: recommended concentration 1 uM
[40] = target: T3, Nuclear receptor subfamily 2 group C member 1 (Homo sapiens); experiment: Selectivity interaction (Reporter gene assay) EUB0000081c NR2C1; set-up: recommended concentration 1 uM
[41] = target: Steroidogenic factor 1 (Homo sapiens) (UniProt Q13285); experiment: Selectivity interaction (Reporter gene assay) EUB0000081c NR5A1; set-up: recommended concentration 1 uM

Structure (SMILES): Nc1nc(NC2CC2)cc(-c2cccc(Cl)c2Cl)n1
- Inhibition of control [1]: 92%
- Inhibition of control [2]: 81%
- Inhibition of control [3]: 99%
- Inhibition of control [4]: 79%

Structure (SMILES): CC(C)c1onc(-c2c(Cl)cccc2Cl)c1COc1ccc(/C=C/c2cccc(C(=O)O)c2)c(Cl)c1
- P-value [5]: 3.89e-13
- Fold activation [6]: 1.12
- Fold activation [7]: 1.41
- Relative activation [8]: 0.803%
- Fold activation [9]: 1.33
- Fold activation [10]: 1.24
- Remaining activity [11]: 0.927

Structure (SMILES): COc1cc2c(cc1NS(=O)(=O)c1ccc(Br)cc1C)n(C)c(=O)n2C
- Inhibition of control [12]: 82%
- ΔTm [13]: 1.4 °C
- ΔTm [14]: 1.8 °C
- ΔTm [15]: 2 °C
- ΔTm [16]: 1.6 °C
- ΔTm [17]: 1.6 °C
- ΔTm [18]: 1.2 °C
- ΔTm [19]: 1.4 °C

Structure (SMILES): CC(C)(Sc1ccc(CCN(CCCCC2CCCCC2)C(=O)NC2CCCCC2)cc1)C(=O)O
- Fold activation [20]: 19.1
- Fold activation [21]: 1.49
- Relative activation [22]: 0.845%
- Remaining activity [23]: 0.944
- Fold activation [24]: 1.03
- Remaining activity [25]: 0.897
- Remaining activity [26]: 0.915
- P-value [27]: 2.26e-05

Structure (SMILES): Cc1cc(C)c(S(=O)(=O)N(Cc2ccc(-c3cccc(S(C)(=O)=O)c3)cc2)Cc2ccc(C(F)(F)F)o2)c(C)c1
- P-value [28]: 0.011
- Fold activation [29]: 1.26
- Remaining activity [30]: 0.982
- Fold activation [31]: 1.28
- Fold activation [32]: 1.06
- Relative activation [33]: 0.984%
- Fold activation [34]: 1.29

Structure (SMILES): CC[C@H]1[C@@H](O)[C@@H]2[C@H](CC[C@]3(C)[C@@H]([C@H](C)CCC(=O)O)CC[C@@H]23)[C@@]2(C)CC[C@@H](O)C[C@@H]12
- Relative activation [35]: 0.53%
- Fold activation [36]: 1.13
- Fold activation [37]: 1.23
- P-value [38]: 0.000147
- Fold activation [39]: 1.14
- Fold activation [40]: 1.19
- Fold activation [41]: 1.04
